Data as given in article PMC6773865, “Functional recruitment of dynamin requires multimeric interactions for efficient endocytosis” (Nature Communications, 2019).

Legend:
[1] = system: clathrin mediated endocytosis (TfR-SEP) in NIH 3T3 cells; test: ppH assay combined with patch-clamp dialysis; type: cell-based; conditions: for inhibition of endocytosis on dialysis: peptide dialysed through patch pipette, 3T3 cells, ppH assay; for event frequency ratio f = FWC/FCA: event frequency 8–10 min whole cell over 3–5 min cell attached, same cell, average ± SEM, SEM
Experimental: To do so, we monitored cellular endocytic activity using the ppH assay with new developments for fully automated analysis on a large number of cells (See “Methods” and Supplementary Fig. 4). We combined this assay, which monitors in real time the endocytic activity of cells, with the patch-clamp technique in order to dialyse the relevant peptide at a known concentration inside the cellular cytoplasm to inhibit endocytosis acutely. Each recording consisted of 5 min in cell-attached mode (CA) with no dialysis followed by 10 min in whole cell mode (WC) during which the inhibitors were dialysed (Fig. 5a, b). Each recording therefore had its own internal control condition, i.e., the cell-attached mode, from which we obtained the frequency ratio f = FWC/FCA, where F is the event frequency recorded during the indicated mode. Of note, the electrical parameters of patch clamp recordings were similar in all conditions (Supplementary Fig. 5). To assess the innocuousness of this assay, we monitored the endocytic activity of unperturbed cells vs. cells dialysed with a control solution (see methods for composition). Patching the cells minimally affected their endocytic activity over a 10 min period (event frequency f = 67.3 ± 4.3%, n = 60, vs. 90.7 ± 14.9% in no patching recordings, n = 8, p = 0.58).
NIH 3T3 cells (ECACC 93061524) were cultured in DMEM supplemented with 1% sodium pyruvate, 1% glutamax and 10% fetal calf serum (Invitrogen). Cells were incubated at 37 °C in 5% CO2 until use and subcultured every 2 to 4 days for maintenance up to passage 20. Cells were transfected with 1.5 μg of TfR-SEP plasmid 24 h prior to imaging and patch clamp. Care was taken to find the right balance between sufficient fluorescent signal to allow for proper imaging and reasonable overexpression to diminish potential saturation artefacts. Best results were obtained using Fugene 6 (Promega) as the transfection reagent but Lipofectamine 2000 (Invitrogen) has also been used in this study due to a temporary arrest of Fugene 6 production by the provider. All transfections were performed according to the manufacturers’ recommendations. Four to eight hours after transfection, cells were seeded at a density of ~70,000 cells ml^−1 on 18 mm glass coverslips coated with poly-L-lysine (3 min application of 0.1 mM polylysine (Sigma P2636) in borate buffer, pH 8.0 followed by a quick rinse in PBS) and used the next day.
Fast solution exchange was controlled by electro-valves (Lee company) connected to a theta glass pipette (TG150, Harvard Apparatus) pulled to ∼100-μm tip size using a vertical puller (Narishige, World Precision Instruments) placed above the recorded cell. Cells were alternatively perfused with HEPES or MES buffered saline solutions (HBS/MBS) containing (in mM): 135 NaCl, 5 KCl, 0.4 MgCl2, 1.8 CaCl2, 1 D-glucose and 20 HEPES or MES. The pH was adjusted to 7.4 or 5.5 using NaOH and osmolarity to 310–315 mOsm L^−1 with NaCl.
Cells were patched with pipettes made of borosilicate glass (GC150F, Harvard Apparatus) and pulled with a vertical Narishige puller (World Precision Instruments). The solution contained (in mM): 130–140 KCH3SO3, 1 EGTA, 0.1 CaCl2, 10–20 HEPES, 4 ATP (sodium or magnesium salt), 0.4 Na-GTP (or GTPγS when indicated), 5 phosphocreatine and 3 sodium ascorbate. pH was adjusted to 7.2 using KOH and osmolarity to ~300 mOsm L^−1. Sodium ascorbate was omitted in earlier recordings but was added for better stability. Chloride ions either came from 2 mM KCl, 10 mM NaCl or 4 mM MgCl2 (when Na-ATP was used) in various trials. All salts were purchased from Sigma-Aldrich. Cells were voltage-clamped at −60 mV with an EPC10 amplifier (HEKA) with series resistance and cell capacitance estimation every 4 s in the whole cell mode. The digital triggers of the amplifier were used to drive the electrovalves for pH changes. […]

[2] = target: T1, Ntr-bSUMO-amphSH3 complex (tetrameric, neutravidin) (Mus musculus, UniProt Q7TQF7); test: SPR, tetrameric Ntr-bSUMO-amphSH3 on immobilized peptides; type: binding, murine; conditions: in the tested concentration range
T1 construct: murine Ampiphysin1 SH3 domain residues 607–686); made in house; host or cells: E. coli BL21 (DE3) co-expressing BirA, with biotin

GST-amphSH3 (dimeric) = target: T2, GST-amphSH3 (dimeric) (Mus musculus, UniProt Q7TQF7); test: SPR, dimeric GST-amphSH3 on immobilized peptides; type: binding, murine; conditions: below 1 µM
T2 construct: murine Ampiphysin1 SH3 domain residues 607–686); made in house; host or cells: E. coli BL21-CodonPlus (DE3)-RIPL
T2 sequence (Q7TQF7 607-686): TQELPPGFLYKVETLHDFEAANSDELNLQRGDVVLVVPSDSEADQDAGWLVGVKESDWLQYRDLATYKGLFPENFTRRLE

[3] = target: SH3 domain of amphiphysin (amphSH3); conditions: read-out: affinity for amphSH3; cited from earlier work
Source text: The large GTPase dynamin is essential for vesicle scission[6] and is primarily recruited at the last steps of vesicle formation[4],[7],[8]. Many aspects of the function of this indispensable protein have been deciphered[9] but how its recruitment is regulated in cells is still a matter of debate. In this regard, the C-terminal proline/arginine rich domain of dynamin (dynPRD) is critical. It is a major interaction hub for Src-homology domain 3 (SH3) domain-containing endocytic accessory proteins[10] that bears several class I (RxxPxxP) and class II (PxxPxR) SH3-binding motifs (where P is prolin ...

T1 sequence (P02701 25-152 partner, one chain of several): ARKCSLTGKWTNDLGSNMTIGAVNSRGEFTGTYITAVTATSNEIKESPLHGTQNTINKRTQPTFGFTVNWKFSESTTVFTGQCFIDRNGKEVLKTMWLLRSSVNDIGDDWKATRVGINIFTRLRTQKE

Compound	inhibition of endocytosis on dialysis [1]	binding of Ntr-bSUMO-amphSH3 [2]	event frequency ratio f = FWC/FCA ([1]; 100 µM peptide in patch pipette, n = 13 (D15)) [%]	event frequency ratio f = FWC/FCA ([1]; 1 mM peptide in patch pipette, n = 22 (D15), 15 (D44), 6 (dD15-C)) [%]	binding of GST-amphSH3 (GST-amphSH3 (dimeric))	Kd [3] [µM]
CC(=O)N[C@@H](Cc1ccc(O)cc1)C(=O)N[C@@H](CCCCn1cc(CCC(=O)NCCCOCCOCCOCCCNC(=O)CCC(=O)NCCCOCCOCCOCCCNC(=O)CCC(=O)NCCCOCCOCCOCCCNC(=O)CCC(=O)N2CCC[C@H]2C(=O)N2CCC[C@H]2C(=O)N2CCC[C@H]2C(=O)N[C@@H](CCC(N)=O)C(=O)N[C@H](C(=O)N2CCC[C@H]2C(=O)N[C@@H](CO)C(=O)N[C@@H](CCCNC(=N)N)C(=O)N2CCC[C@H]2C(=O)N[C@@H](CC(N)=O)C(=O)N[C@@H](CCCNC(=N)N)C(=O)N[C@@H](C)C(=O)N2CCC[C@H]2C(=O)N2CCC[C@H]2C(=O)NCC(N)=O)C(C)C)nn1)C(=O)NCCCOCCOCCOCCCNC(=O)CCC(=O)NCCCOCCOCCOCCCNC(=O)CCC(=O)NCCCOCCOCCOCCCNC(=O)CCC(=O)N1CCC[C@H]1C(=O)N1CCC[C@H]1C(=O)N1CCC[C@H]1C(=O)N[C@@H](CCC(N)=O)C(=O)N[C@H](C(=O)N1CCC[C@H]1C(=O)N[C@@H](CO)C(=O)N[C@@H](CCCNC(=N)N)C(=O)N1CCC[C@H]1C(=O)N[C@@H](CC(N)=O)C(=O)N[C@@H](CCCNC(=N)N)C(=O)N[C@@H](C)C(=O)N1CCC[C@H]1C(=O)N1CCC[C@H]1C(=O)NCC(N)=O)C(C)C [dD15-N]	clearly increased efficiency over D15					
Ac-YPPPQVPSRPNRAPPG-NH2 [D15, reference compound]	only partial	no binding was observed	59.0 ± 5.0	38.2 ± 3.9	no measureable binding	90
